The values that follow come from US9169209B2, “Compounds and compositions for the inhibition of NAMPT” (FORMA TM, LLC, priority 2011, dated 2015).

The target in one assay is NAMPT (Homo sapiens (Human), UniProt P43490). Description: Biochemical Inhibition Assay (NAMPT enzymatic reaction, NMN quantified by mass spectrometry). The settings on record: recombinant His-tagged NAMPT, 33 nM; 1 μM NAM; read-out: Biochem IC50. As for the experimental part: Recombinant His-tagged NAMPT was produced in E. coli cells, purified over a Ni column, and further purified over a size-exclusion column by XTAL Biostructures.
The NAMPT enzymatic reactions were carried out in Buffer A (50 mM Hepes pH 7.5, 50 mM NaCl, 5 mM MgCl2, and 1 mM THP) in 96-well V-bottom plates. The compound titrations were performed in a separate dilution plate by serially diluting the compounds in DMSO to make a 100× stock. […] The compound and enzyme mix was incubated for 15 minutes at room temperature, then 10 μL of 10× substrate and co-factors in Buffer A were added to the test well to make a final concentration of 1 μM NAM, 100 μM 5-Phospho-D-ribose 1-diphosphate (PRPP), and 2.5 mM Adenosine 5′-triphosphate (ATP). The reaction was allowed to proceed for 30 minutes at room temperature, then was quenched with the addition of 11 μL of a solution of formic acid and L-Cystathionine to make a final concentration of 1% formic acid and 10 μM L-Cystathionine. Background and signal strength was determined by addition (or non-addition) of a serial dilution of NMN to a pre-quenched enzyme and cofactor mix.
A mass spectrometry-based assay was used to measure the NAMPT reaction product (NMN) and the internal control (L-Cystathionine). NMN and L-Cystathionine were detected using the services of Biocius Lifesciences with the RapidFire system. In short, the NMN and L-Cystathionine are bound to a graphitic carbon cartridge in 0.1% formic acid, eluted in 30% acetonitrile buffer, and injected into a Sciex 4000 mass spectrometer. The components of the sample were ionized with electrospray ionization and the positive ions were detected. […] The fragments are quantified and the analyzed by the following method.
First the NMN signal is normalized to the L-Cystathionine signal by dividing the NMN signal by the L-Cystathionine signal for each well. The signal from the background wells are averaged and subtracted from the test plates.
Wherein x denotes the average signal of the compound treated wells and y denotes the average signal of the DMSO treated wells.
IC50s are Determined Using Excel and this Formula.
Wherein X denotes the compound concentration 1, Y denotes the compound concentration 2, XX denotes the % inhibition at compound concentration 1 (X), and YY denotes the % inhibition at compound concentration 2 (Y).

The next assay deals with A2780 cells. As to the kind of experiment: In-Vitro Cell Proliferation Assay (SRB, 72 hours). The class given is cell-based. Conditions: Homo sapiens, A2780, 72 h, A2780 cells, 72 hours, sulforhodamine B; read-out: A2780 IC50. The procedure: After overnight incubation at 37° C. and 5% CO2, the compound titrations were performed in a separate dilution plate by serially diluting the compounds in DMSO to make a 1000× stock. The compounds were then further diluted to 10× final concentration in culture media, whereupon 20 μL of each dilution was added to the plated cells with controls (e.g. DMSO and blank) to make a final volume of 200 μL. The final DMSO concentration in each well was 0.1%. The plates were then incubated for 72 hours at 37° C. in a 5% CO2 incubator. The number of viable cells was then assessed using sulforhodamine B (SRB) assay. Cells were fixed at 4° C. for 1 hour with the addition of 50 μL 30% trichloroacetic acid (TCA) to make a final concentration of 6% TCA. The plates were washed four times with H2O and allowed to dry for at least 1 hour, whereupon 100 μL of a 4% SRB in 1% acetic acid solution was added to each well and incubated at room temperature for at least 30 minutes. The plates were then washed three times with 1% acetic acid, dried, and treated with 100 μL of 10 mM Tris-Base solution. The plates were then read in a microplate reader at an absorbance of 570 nm. Background was generated on a separate plate with media only.
First, the signals from the background plate are averaged and then the background was subtracted from the test plates.
wherein x denotes the average signal of the compound-treated cells and y denotes the average signal of the DMSO-treated cells.
wherein X denotes the compound concentration 1, Y denotes the compound concentration 2, XX denotes the % inhibition at compound concentration 1 (X), and YY denotes the % inhibition at compound concentration 2 (Y).

Sequence of NAMPT (P43490 whole entry): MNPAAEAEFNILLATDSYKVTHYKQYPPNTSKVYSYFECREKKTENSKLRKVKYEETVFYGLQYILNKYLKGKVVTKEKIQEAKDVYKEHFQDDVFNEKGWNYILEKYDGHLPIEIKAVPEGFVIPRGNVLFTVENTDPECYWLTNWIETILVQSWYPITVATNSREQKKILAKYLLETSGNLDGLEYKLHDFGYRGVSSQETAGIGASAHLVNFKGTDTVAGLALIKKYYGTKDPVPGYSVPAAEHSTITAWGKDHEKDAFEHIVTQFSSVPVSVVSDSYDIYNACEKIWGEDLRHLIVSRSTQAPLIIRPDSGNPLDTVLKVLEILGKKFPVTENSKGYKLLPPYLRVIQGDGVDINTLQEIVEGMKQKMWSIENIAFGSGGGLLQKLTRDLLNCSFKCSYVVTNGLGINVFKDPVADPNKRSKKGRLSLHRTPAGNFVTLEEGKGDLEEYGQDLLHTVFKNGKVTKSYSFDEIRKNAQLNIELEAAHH

By IC50 is commonly meant the concentration that inhibits the measured activity by half. For the molecule `COc1cc(C(F)(F)F)ccc1S(=O)(=O)c1ccc(NC(=O)/C=C/c2cccnc2)cc1` [(2E)-N-(4-{[2-methoxy-4-(trifluoromethyl)benzene]sulfonyl}phenyl)-3-(pyridin-3-yl)prop-2-enamide], the values for the IC50 at NAMPT and in the assay on A2780 cells were 59.6 nM and 118 nM, respectively.

For the molecule `Cn1ncc2cc(S(=O)(=O)c3ccc(NC(=O)/C=C/c4cccnc4)cc3)ccc21` [(2E)-N-[4-(1-methyl-1H-indazole-5-sulfonyl)phenyl]-3-(pyridin-3-yl)prop-2-enamide], the IC50 on NAMPT was found to be 1.9 nM; with A2780 cells, 97.6 nM.

Regarding `Cn1cc(S(=O)(=O)c2ccc(NC(=O)/C=C/c3cccnc3)cc2)cn1` [(2E)-N-[4-(1-methyl-1H-pyrazole-4-sulfonyl)phenyl]-3-(pyridin-3-yl)prop-2-enamide], the results for the IC50 at NAMPT and in the assay with A2780 cells were 7.7 nM and 100 to 1000 nM, respectively.

As for `O=C(/C=C/c1cccnc1)NCc1ccc(S(=O)(=O)N2CC3CCC(C2)O3)cc1` [(2E)-N-[(4-{8-oxa-3-azabicyclo[3.2.1]octane-3-sulfonyl}phenyl)methyl]-3-(pyridin-3-yl)prop-2-enamide], the IC50 on NAMPT is 3 nM; in the assay on A2780 cells, 386 nM.

Consider `CC(C)Oc1ccc(S(=O)(=O)c2ccc(NC(=O)/C=C/c3cccnc3)cc2)cc1` [(2E)-N-(4-{[4-(propan-2-yloxy)benzene]sulfonyl}phenyl)-3-(pyridin-3-yl)prop-2-enamide], for which the IC50 on NAMPT came out at 5.4 nM; in the assay with A2780 cells it was 91.5 nM.

For `CCCn1cc(S(=O)(=O)c2ccc(NC(=O)/C=C/c3cccnc3)cc2)cn1` [(2E)-N-[4-(1-propyl-1H-pyrazole-4-sulfonyl)phenyl]-3-(pyridin-3-yl)prop-2-enamide], the IC50 came out at 2.6 nM at NAMPT and 20.8 nM with A2780 cells.

For `O=C(/C=C/c1cccnc1)Nc1ccc(S(=O)(=O)c2cccnc2)cc1` [(2E)-3-(pyridin-3-yl)-N-[4-(pyridine-3-sulfonyl)phenyl]prop-2-enamide], the IC50 at NAMPT is 18.3 nM; with A2780 cells, 100 to 1000 nM.

On to `O=C(/C=C/c1cccnc1)Nc1ccc(S(=O)(=O)N2CCC(N3CCOCC3)CC2)cc1` [(2E)-N-{4-[4-(morpholin-4-yl)piperidine-1-sulfonyl]phenyl}-3-(pyridin-3-yl)prop-2-enamide], for which the IC50 was 10 nM at NAMPT and 210 nM in the assay on A2780 cells.

`CCS(=O)(=O)Nc1cccc(S(=O)(=O)c2ccc(NC(=O)/C=C/c3cccnc3)cc2)c1` [(2E)-N-{4-[(3-ethanesulfonamidobenzene)sulfonyl]phenyl}-3-(pyridin-3-yl)prop-2-enamide]: the results for the 50% inhibitory concentration (IC50) at NAMPT and in the assay with A2780 cells were 8.1 nM and 100 to 1000 nM, respectively.

`CCN(CC)C(=O)c1cc(Cl)cc(S(=O)(=O)c2ccc(NC(=O)/C=C/c3cccnc3)cc2)c1` [3-chloro-N,N-diethyl-5-({4-[(2E)-3-(pyridin-3-yl)prop-2-enamido]benzene}sulfonyl)benzamide]: the IC50 at NAMPT came out at 19.4 nM; in the assay with A2780 cells, 27.4 nM.

For `CCNC(=O)c1ccc(S(=O)(=O)c2ccc(NC(=O)/C=C/c3cccnc3)cc2)cc1` [N-ethyl-4-({4-[(2E)-3-(pyridin-3-yl)prop-2-enamido]benzene}sulfonyl)benzamide], the 50% inhibitory concentration (IC50) is 14.7 nM on NAMPT and 100 to 1000 nM in the assay on A2780 cells.

Regarding `COc1ccc(S(=O)(=O)c2ccc(NC(=O)/C=C/c3cccnc3)cc2)cc1Cl` [(2E)-N-{4-[(3-chloro-4-methoxybenzene)sulfonyl]phenyl}-3-(pyridin-3-yl)prop-2-enamide], the IC50 amounted to 5.8 nM on NAMPT and 123 nM with A2780 cells.

With `O=C(/C=C/c1cccnc1)Nc1ccc(S(=O)(=O)c2ccc3c(c2)OCO3)cc1` [(2E)-N-[4-(2H-1,3-benzodioxole-5-sulfonyl)phenyl]-3-(pyridin-3-yl)prop-2-enamide], the IC50 on NAMPT was 9.9 nM; in the assay with A2780 cells, 100 to 1000 nM.

For `O=C(/C=C/c1cccnc1)Nc1ccc(S(=O)(=O)c2ccc3ncccc3c2)cc1` [(2E)-3-(pyridin-3-yl)-N-[4-(quinoline-6-sulfonyl)phenyl]prop-2-enamide], the IC50 came out at 5.4 nM on NAMPT and 76.2 nM with A2780 cells.

On to `COc1ccccc1S(=O)(=O)c1ccc(NC(=O)/C=C/c2cccnc2)cc1` [(2E)-N-{4-[(2-methoxybenzene)sulfonyl]phenyl}-3-(pyridin-3-yl)prop-2-enamide], for which the figures for the IC50 at NAMPT and in the assay with A2780 cells were 7.7 nM and 24.1 nM, respectively.

Take `O=C(/C=C/c1cccnc1)Nc1ccc(S(=O)(=O)c2cccc3ccsc23)cc1` [(2E)-N-[4-(1-benzothiophene-7-sulfonyl)phenyl]-3-(pyridin-3-yl)prop-2-enamide]: the IC50 at NAMPT amounted to 16.1 nM; in the assay on A2780 cells, 106 nM.

With `Cc1ccc(S(=O)(=O)c2ccc(NC(=O)/C=C/c3cccnc3)cc2)cc1F` [(2E)-N-{4-[(3-fluoro-4-methylbenzene)sulfonyl]phenyl}-3-(pyridin-3-yl)prop-2-enamide], the IC50 at NAMPT came to 27.6 nM; in the assay on A2780 cells, 196 nM.

Turning to `COc1ccc2cc(S(=O)(=O)c3ccc(NC(=O)/C=C/c4cccnc4)cc3)ccc2c1` [(2E)-N-[4-(6-methoxynaphthalene-2-sulfonyl)phenyl]-3-(pyridin-3-yl)prop-2-enamide], the IC50 in the assay with A2780 cells lay in the range of 100 to 1000 nM.

For `O=C(/C=C/c1cccnc1)Nc1ccc(S(=O)(=O)c2cncc(N3CCCC3)c2)cc1` [(2E)-3-(pyridin-3-yl)-N-{4-[5-(pyrrolidin-1-yl)pyridine-3-sulfonyl]phenyl}prop-2-enamide], the IC50 at NAMPT stood at 1.4 nM; in the assay on A2780 cells, 51.1 nM.

For `CC(C)COc1cc(F)cc(S(=O)(=O)c2ccc(NC(=O)/C=C/c3cccnc3)cc2)c1` [(2E)-N-(4-{[3-fluoro-5-(2-methylpropoxy)benzene]sulfonyl}phenyl)-3-(pyridin-3-yl)prop-2-enamide], the figures for the IC50 at NAMPT and in the assay with A2780 cells were 35.4 nM and 61.3 nM, respectively.

For the molecule `COc1ccc(S(=O)(=O)c2ccc(NC(=O)/C=C/c3cccnc3)cc2)cc1C` [(2E)-N-{4-[(4-methoxy-3-methylbenzene)sulfonyl]phenyl}-3-(pyridin-3-yl)prop-2-enamide], the IC50 stood at 17.1 nM at NAMPT and 116 nM in the assay on A2780 cells.

For the molecule `CC(C)CNC(=O)c1cccc(S(=O)(=O)c2ccc(NC(=O)/C=C/c3cccnc3)cc2)c1` [N-(2-methylpropyl)-3-({4-[(2E)-3-(pyridin-3-yl)prop-2-enamido]benzene}sulfonyl)benzamide], the IC50 at NAMPT was 21.3 nM; in the assay on A2780 cells it was 100 to 1000 nM.

Take `Cc1ccc(F)cc1S(=O)(=O)c1ccc(NC(=O)/C=C/c2cccnc2)cc1` [(2E)-N-{4-[(5-fluoro-2-methylbenzene)sulfonyl]phenyl}-3-(pyridin-3-yl)prop-2-enamide]: the results for the 50% inhibitory concentration (IC50) at NAMPT and with A2780 cells were 7.4 nM and 90.1 nM, respectively.

On to `O=C(/C=C/c1cccnc1)Nc1ccc(S(=O)(=O)c2cnc3ccccc3c2)cc1` [(2E)-3-(pyridin-3-yl)-N-[4-(quinoline-3-sulfonyl)phenyl]prop-2-enamide], for which the concentration for half-maximal inhibition (IC50) stood at 3.7 nM on NAMPT and 100 nM in the assay on A2780 cells.

Regarding `Cc1ccc(S(=O)(=O)c2ccc(NC(=O)/C=C/c3cccnc3)cc2)cn1` [(2E)-N-[4-(6-methylpyridine-3-sulfonyl)phenyl]-3-(pyridin-3-yl)prop-2-enamide], the IC50 in the assay on A2780 cells lay in the range of 100 to 1000 nM.

Regarding `Cc1cccc(S(=O)(=O)c2ccc(NC(=O)/C=C/c3cccnc3)cc2)c1` [(2E)-N-{4-[(3-methylbenzene)sulfonyl]phenyl}-3-(pyridin-3-yl)prop-2-enamide], in the assay on A2780 cells, the IC50 worked out at 93.3 nM.

For the molecule `Cn1ncc2ccc(S(=O)(=O)c3ccc(NC(=O)/C=C/c4cccnc4)cc3)cc21` [(2E)-N-[4-(1-methyl-1H-indazole-6-sulfonyl)phenyl]-3-(pyridin-3-yl)prop-2-enamide], in the assay on A2780 cells, the IC50 is 53 nM.
